The values below come from PubChem BioAssay AID1259407 (Chemical Carcinogenesis Research Information System (CCRIS), 2018).

Calls of active or inactive are those of the source. How the calls were made is not given here.

In the data set the test system is CCRIS mutagenicity, Ames/micronucleus/aberration tests. As to the kind of experiment: CCRIS mutagenicity studies.
Where [1] appears, read: Test System: AMES SALMONELLA TYPHIMURIUM, Strain/Indicator: TA98, Metabolic Activation: NONE, Method: PREINCUBATION
Where [2] appears, read: Test System: AMES SALMONELLA TYPHIMURIUM, Strain/Indicator: TA98, Metabolic Activation: NONE, Method: STANDARD PLATE.
[3] abbreviates: Test System: AMES SALMONELLA TYPHIMURIUM, Strain/Indicator: TA100, Metabolic Activation: NONE, Method: STANDARD PLATE.
Setting [4] is: Test System: AMES SALMONELLA TYPHIMURIUM, Strain/Indicator: TA1535, Metabolic Activation: NONE, Method: STANDARD PLATE.

As for `ONc1ccc(-c2ccccc2)cc1`, the mutagenic call (Test System: AMES SALMONELLA TYPHIMURIUM, Strain/Indicator: TA98(1,8-DNP6), Metabolic Activation: NONE, Method: PREINCUBATION) is “active; positive”; the mutagenic call under setting [1] is “active; positive”; the mutagenic call under setting [2] is “active; positive”; the mutagenic call (Test System: AMES SALMONELLA TYPHIMURIUM, Strain/Indicator: TA98, Metabolic Activation: S-9, Method: STANDARD PLATE) is “active; positive”; the mutagenic call under setting [3] was “active; positive”; the mutagenic call (Test System: AMES SALMONELLA TYPHIMURIUM, Strain/Indicator: TA100, Metabolic Activation: S-9, Method: STANDARD PLATE) was “active; positive”. The mutagenic call under setting [4] is “inactive; negative”; the mutagenic call (Test System: AMES SALMONELLA TYPHIMURIUM, Strain/Indicator: YG1024, Metabolic Activation: NONE, Method: PREINCUBATION) was “active; positive”; the mutagenic call (Test System: E. COLI, Strain/Indicator: WP2, Metabolic Activation: NONE, Method: PREINCUBATION) is “active; positive”; the mutagenic call (Test System: E. COLI, Strain/Indicator: WP2 UVRA(P), Metabolic Activation: NONE, Method: STANDARD PLATE) is “active; positive”; the mutagenic call (Test System: E. COLI, Strain/Indicator: WP2 UVRA, Metabolic Activation: NONE, Method: FLUCTUATION TEST) is “active; positive”; the mutagenic call (Test System: E. COLI, Strain/Indicator: WP2 UVRA, Metabolic Activation: NONE, Method: PREINCUBATION) was “active; positive”. Moreover, the mutagenic call (Test System: E. COLI, Strain/Indicator: WP2 UVRA, Metabolic Activation: NONE, Method: STANDARD PLATE) is “active; positive”.

`CC(COC(=O)c1ccccc1)(COC(=O)c1ccccc1)COC(=O)c1ccccc1`: the mutagenic call is, setting by setting: (Test System: AMES SALMONELLA TYPHIMURIUM, Strain/Indicator: TA97, Metabolic Activation: HAMSTER, LIVER, S-9, AROCLOR 1254 (10 OR 30%), Method: PREINCUBATION) “inactive; negative”; (Test System: AMES SALMONELLA TYPHIMURIUM, Strain/Indicator: TA97, Metabolic Activation: NONE, Method: PREINCUBATION) “inactive; negative”; (Test System: AMES SALMONELLA TYPHIMURIUM, Strain/Indicator: TA97, Metabolic Activation: RAT, LIVER, S-9, AROCLOR 1254 (10 OR 30%), Method: PREINCUBATION) “inactive; negative”; (Test System: AMES SALMONELLA TYPHIMURIUM, Strain/Indicator: TA98, Metabolic Activation: HAMSTER, LIVER, S-9, AROCLOR 1254 (10 OR 30%), Method: PREINCUBATION) “inactive; negative”; under setting [1], “inactive; negative”; (Test System: AMES SALMONELLA TYPHIMURIUM, Strain/Indicator: TA98, Metabolic Activation: RAT, LIVER, S-9, AROCLOR 1254 (10 OR 30%), Method: PREINCUBATION) “inactive; negative”. For the same compound, the mutagenic call is “inactive; negative” (Test System: AMES SALMONELLA TYPHIMURIUM, Strain/Indicator: TA100, Metabolic Activation: HAMSTER, LIVER, S-9, AROCLOR 1254 (10 OR 30%), Method: PREINCUBATION); “inactive; negative” (Test System: AMES SALMONELLA TYPHIMURIUM, Strain/Indicator: TA100, Metabolic Activation: NONE, Method: PREINCUBATION); “inactive; negative” (Test System: AMES SALMONELLA TYPHIMURIUM, Strain/Indicator: TA100, Metabolic Activation: RAT, LIVER, S-9, AROCLOR 1254 (10 OR 30%), Method: PREINCUBATION); “inactive; negative” (Test System: AMES SALMONELLA TYPHIMURIUM, Strain/Indicator: TA1535, Metabolic Activation: HAMSTER, LIVER, S-9, AROCLOR 1254 (10 OR 30%), Method: PREINCUBATION); “inactive; negative” (Test System: AMES SALMONELLA TYPHIMURIUM, Strain/Indicator: TA1535, Metabolic Activation: NONE, Method: PREINCUBATION); “inactive; negative” (Test System: AMES SALMONELLA TYPHIMURIUM, Strain/Indicator: TA1535, Metabolic Activation: RAT, LIVER, S-9, AROCLOR 1254 (10 OR 30%), Method: PREINCUBATION). Besides, the mutagenic call by setting is: (Test System: AMES SALMONELLA TYPHIMURIUM, Strain/Indicator: TA1537, Metabolic Activation: HAMSTER, LIVER, S-9, AROCLOR 1254 (30%), Method: PREINCUBATION) “inactive; negative”; (Test System: AMES SALMONELLA TYPHIMURIUM, Strain/Indicator: TA1537, Metabolic Activation: NONE, Method: PREINCUBATION) “inactive; negative”; (Test System: AMES SALMONELLA TYPHIMURIUM, Strain/Indicator: TA1537, Metabolic Activation: RAT, LIVER, S-9, AROCLOR 1254 (30%), Method: PREINCUBATION) “inactive; negative”.

`FC(Cl)C(F)(F)C(F)(F)Cl` (stereo not drawn): the mutagenic call runs as follows: under setting [2], “inactive; negative”; (Test System: AMES SALMONELLA TYPHIMURIUM, Strain/Indicator: TA98, Metabolic Activation: RAT LIVER S-9, PHENOBARBITAL, 5,6-BENZOFLAVONE, Method: STANDARD PLATE) “inactive; negative”; under setting [3], “inactive; negative”; (Test System: AMES SALMONELLA TYPHIMURIUM, Strain/Indicator: TA100, Metabolic Activation: RAT LIVER S-9, PHENOBARBITAL, 5,6-BENZOFLAVONE, Method: STANDARD PLATE) “inactive; negative”; under setting [4], “inactive; negative”; (Test System: AMES SALMONELLA TYPHIMURIUM, Strain/Indicator: TA1535, Metabolic Activation: RAT LIVER S-9, PHENOBARBITAL, 5,6-BENZOFLAVONE, Method: STANDARD PLATE) “inactive; negative”. In addition, the mutagenic call (Test System: AMES SALMONELLA TYPHIMURIUM, Strain/Indicator: TA1537, Metabolic Activation: NONE, Method: STANDARD PLATE) was “inactive; negative”; the mutagenic call (Test System: AMES SALMONELLA TYPHIMURIUM, Strain/Indicator: TA1537, Metabolic Activation: RAT LIVER S-9, PHENOBARBITAL, 5,6-BENZOFLAVONE, Method: STANDARD PLATE) was “inactive; negative”; the mutagenic call (Test System: ESCHERICHIA COLI, Strain/Indicator: WP2 UVR A, Metabolic Activation: NONE, Method: STANDARD PLATE) is “inactive; negative”; the mutagenic call (Test System: ESCHERICHIA COLI, Strain/Indicator: WP2 UVR A, Metabolic Activation: RAT LIVER S-9, PHENOBARBITAL, 5,6-BENZOFLAVONE, Method: STANDARD PLATE) is “inactive; negative”; the mutagenic call (Test System: UDS RAT HEPATOCYTES IN VIVO, Strain/Indicator: THYMIDINE INCORPORATION, Metabolic Activation: NONE, Method: INHALATION (6HR, NOSE-ONLY, 2-OR 16-HR HARVEST)/AUTORADIOGRAPHY) was “inactive; negative”.

`O=C1c2ccccc2-c2ccc([N+](=O)[O-])c3cccc1c23`: the mutagenic call is, setting by setting: (End Point: IN VITRO MICRONUCLEUS, Test System: HUMAN B-LYMPHOBLASTOID CELLS (MCL-5), Metabolic Activation: NONE) “active; positive”; (End Point: In vivo micronucleus, Test System: lacZ mutant frequency in liver, lung, and bone marrow cells, Species: Mouse, Strain/Sex: Big Blue (BALB/c x DBA2)/Male, Route: Oral) “active; positive in liver and bone marrow”; (Test System: Human lymphoblastoid cells, Strain/Indicator: MCL-5 (HPRT)/6-Thioguanine, Metabolic Activation: None, Method: Well plates) “active; positive”; (Test System: Human lymphoblastoid cells, Strain/Indicator: MCL-5 (tk+/tk-)/Trifluorothymidine, Metabolic Activation: None, Method: Well plates) “active; positive”; (Test System: Human lymphoblastoid cells, Strain/Indicator: h1A1v2 (HPRT)/6-Thioguanine, Metabolic Activation: None, Method: Well plates) “active; positive”; (Test System: Human lymphoblastoid cells, Strain/Indicator: h1A1v2 (tk+/tk-)/Trifluorothymidine, Metabolic Activation: None, Method: Well plates) “active; positive”.

`O=C(ON(OCc1ccccc1)C(=O)c1ccccc1)c1ccccc1`: under setting [3], the mutagenic call is “active; positive”.

As to `CC(=O)CC1CCC(=O)/C=C\C(=O)OC(CC(C)=O)CCC(=O)/C=C\C(=O)O1` (stereo not drawn), the mutagenic call was “active; positive” (Test System: CHINESE HAMSTER V-79, Strain/Indicator: V-79 (HPRT)/6-THIOGUANINE, Metabolic Activation: NONE) and “active; positive” (Test System: CHINESE HAMSTER V-79, Strain/Indicator: V-79 (HPRT)/6-THIOGUANINE, Metabolic Activation: RAT, LIVER, S-9, 3-METHYLCHOLANTHRENE).
